The supplement of paper PMC11061612

Columns and labels:
Test in all cases: Bliss excess, mean over the matrix (fraction); higher = more synergy
[1] = test system: DG-75 (Burkitt's Lymphoma)
Summary of the method: (§1)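 After 24 hours at 37°C and 5% CO2 in 1536-well plates, cells in DMEM/F12 or RPMI plus 10% FBS received two-drug dose matrices for 72 hours. Viability came from CellTiter-Glo 2.0 luminescence and was scaled as inhibition, anchored at 0 by vehicle wells and at 1 by blank wells. Combination Emax is taken as the second-highest inhibition in the matrix, and Bliss excess as the observed combination effect less EA + EB − EA·EB, with EA and EB the single-agent effects.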

[2] = test system: KINGS-1 (Low Grade Glioma)
Summary of the method: as §1

RPMI-7951 (Melanoma) = test system: RPMI-7951 (Melanoma)
Summary of the method: as §1

[3] = test system: NCI-H2405 (Lung Adenocarcinoma)
Summary of the method: as §1

EW-13 (Ewing's Sarcoma) = test system: EW-13 (Ewing's Sarcoma)
Summary of the method: as §1

[4] = test system: KYSE-50 (Esophageal Squamous Cell Carcinoma)
Summary of the method: as §1

EW-3 (Ewing's Sarcoma) = test system: EW-3 (Ewing's Sarcoma)
Summary of the method: as §1

NB7 (Neuroblastoma) = test system: NB7 (Neuroblastoma)
Summary of the method: as §1

[5] = test system: OVISE (Ovarian Carcinoma)
Summary of the method: as §1

[6] = test system: OCUB-M (Breast Carcinoma)
Summary of the method: as §1

[7] = test system: NCI-H322M (Lung Adenocarcinoma)
Summary of the method: as §1

IMR-5 (Neuroblastoma) = test system: IMR-5 (Neuroblastoma)
Summary of the method: as §1

[8] = test system: KLE (Endometrial Carcinoma)
Summary of the method: as §1

[9] = test system: PF-382 (T-Lymphoblastic Leukemia)
Summary of the method: as §1

[10] = test system: ASH-3 (Thyroid Gland Carcinoma)
Summary of the method: as §1

[11] = test system: H-EMC-SS (Chondrosarcoma)
Summary of the method: as §1

[12] = test system: KP-2 (Pancreatic Carcinoma)
Summary of the method: as §1

[13] = test system: SCC-9 (Oral Cavity Carcinoma)
Summary of the method: as §1

[14] = test system: KYSE-150 (Esophageal Squamous Cell Carcinoma)
Summary of the method: as §1

[15] = test system: HSC-2 (Oral Cavity Carcinoma)
Summary of the method: as §1

In the case of `CCc1c2c(nc3ccc(O)cc13)-c1cc3c(c(=O)n1C2)COC(=O)[C@]3(O)CC` [SN-38] + O=C(c1cc(Cc2n[nH]c(=O)c3ccccc23)ccc1F)N1CCN(C(=O)C2CC2)CC1 [Olaparib] (first compound max 0.3 µM, 7x7, partner max 10 µM), the Bliss excess [1] is reported as 0.0451, the Bliss excess [2] is reported as 0.0161 and the Bliss excess (RPMI-7951 (Melanoma)) is reported as 0.0656. It also gave a Bliss excess [3] of 0.0105, a Bliss excess (EW-13 (Ewing's Sarcoma)) of 0.0804 and a Bliss excess [4] of 0.0126. It also gave a Bliss excess (EW-3 (Ewing's Sarcoma)) of -0.0057, a Bliss excess (NB7 (Neuroblastoma)) of 0.0625 and a Bliss excess [5] of 0.0082. The Bliss excess [6] was 0.15, the Bliss excess [7] was 0.0495 and the Bliss excess (IMR-5 (Neuroblastoma)) was 0.0721. For the same compound, the Bliss excess [8] was 0.0346, the Bliss excess [9] was 0.0471 and the Bliss excess [10] was 0.074. For the same compound, the Bliss excess [11] was 0.0825, the Bliss excess [12] was 0.0564 and the Bliss excess [13] was 0.0207. The Bliss excess [14] was 0.0762 and the Bliss excess [15] was 0.102.
